Results reported in patent US20260373226A1, “METHODS AND COMPOSITIONS FOR THE TREATMENT OF NEURODEGENERATIVE DISEASE” (Stealth BioTherapeutics Inc., priority 2022, published 2026).

Assays:
[1] = SBT-272 level in brain homogenates after ET-1 injection; assay type: in vivo; details: rat hemibrain, 24 hours after final treatment
Text: FIG. 2B is a schematic showing the experimental design. Dotted lines indicate left and right subsection of hemibrain used for RCR and PK analysis (FIG. 2B). FIG. 2C: individual respiratory control ratios (RCR) per animal (n=8 per group) from the stroke-induced subsection of the right hemisphere. FIG. 2D: SBT-272 level in the brain homogenates from the same hemisphere after ET-1 injection. ET1=endothelin-1, vasoconstrictive peptide (*P<0.05, Kruskal-Wallis followed by Dunn's test).
Improved respiratory control ratio after cerebral ischemia reperfusion. To assess its pharmacodynamic effect on mitochondrial function in the brain, SBT-272 was tested in a rat model of acute ischemia. The mitochondrial effects of SBT-272 were determined using the respiratory control ratio (RCR), the ratio of coupled respiration (supporting oxidative phosphorylation) to respiratory rate in the absence of ADP (“leak” respiration). The high mitochondrial RCR in sham-treated animals (9.0±0.1) confirmed that the mitochondrial were healthy, as the majority of respiration accounted for replenishing cellular ATP levels (FIG. 2C).

[2] = Steady state PK in plasma, CSF, brain after 5 daily s.c. doses in rats; assay type: in vivo, male Sprague-Dawley rat; details: rat, 10 mg/kg s.c., 5 daily doses
Protocol: Pharmacokinetic profile of SBT-272 in rat plasma, CSF, and brain (for FIG. 5A). The objective of this study was to evaluate the pharmacokinetics of SBT-272 in microdialysate from the prefrontal cortex (PFC) and striatum (STR), and in plasma and CSF of freely-moving adult male Sprague-Dawley rats. The experiments and the analysis were performed at Charles River Laboratories Den Bosch B.V., location Groningen (Groningen, the Netherlands).
Test items. Test compound was SBT-272. The molecular weight of SBT-272 is 607.75 g/mol in the salt-free form, and 717.13 g/mol in the salt form.
In vivo experiments: Animals. A total of six male Sprague-Dawley rats (309-329 g; CRL Sulzfeld, Germany) were used for the experiments. The experiments were conducted in strict accordance with the Guide for the Care and Use of Laboratory Animals (National Research Council 2011) and were in accordance with European Union directive 2010/63 and the Dutch law. The experiments were carried out under license number AVD23600202011187, issued by the national committee for licensing of animal experiments (Centrale Commissie Dierproeven) and were approved by the Animal Care and Use Committee (Instantie voor Dierenwelzijn) of Charles River Discovery Groningen.
Following arrival, animals were housed in groups of 5 in polycarbonate cages (56 X 33×20 cm) with wire mesh top in a temperature (22±2 °C) and humidity (55±15%) controlled environment on a 12 hour light cycle (07.00-19.00 h). After surgery, animals were housed individually (cages 30×30×40 cm). Standard diet (A04 mod. R/M-M, Ssniff, Germany) and domestic quality mains water were available ad libitum.
In vivo experiments: Surgery. Animals were anesthetized using isoflurane (2% and 800 mL/min 02). Before surgery, carprofen (5 mg/kg, s.c.) was administered for peri- and post-operative analgesia. A mixture of bupivacaine and epinephrine was applied to the incision site and periosteum of the skull for local analgesia.
In vivo experiments: Microdialysis probe implantation. Each animal was placed in a stereotaxic frame (Kopf instruments, USA). […]

Cc1cc(O)cc(C)c1C[C@H](NC(=O)[C@H](N)CCCNC(=N)N)C(=O)N[C@@H](CCCCN)c1nc(Cc2ccccc2)no1 [SBT-272, (R)-2-amino-N—((S)-1-(((S)-5-amino-1-(3-benzyl-1,2,4-oxadiazol-5-yl)pentyl)amino)-3-(4-hydroxy-2,6-dimethylphenyl)-1-oxopropan-2-yl)-5-guanidinopentanamide]
brain concentration, dose relation [1]: dose proportional | Kp ([2]; brain, sc, read-out: brain:plasma ratio): 178 | brain:CSF ratio [2]: 182 | plasma:CSF ratio [2]: 1.03
